Blank lines part the entries; values can stand above or below the compound they belong to.
Legend:
Cytochrome P450 3A4 = Cytochrome P450 3A4 (Homo sapiens, UniProt P08684); test: Drug metabolism in human liver microsomes assessed as CYP3A4-mediated (3R,3aS,4S,4aR,7R,8aR,9aR)-7-amino-4-((E)-2-(5-(3-fluorophenyl)pyridin-2-yl)vinyl)-3-methyldecahydronaphtho[2,3-c]furan-1(3H)-one formation at 25 uM after 120 mins by LC-MS/MS analysis; format: ADME; details: 2 h
Cytochrome P450 4A11 = Cytochrome P450 4A11 (Homo sapiens, UniProt Q02928); test: Activity of human recombinant CYP4A11 assessed as enzyme-mediated drug metabolism treated with 25 uM vorapaxar after 120 mins by LC-MS/MS analysis in presence of NADPH; format: ADME; details: 2 h
Sequence of Cytochrome P450 4A11 (Q02928 whole entry): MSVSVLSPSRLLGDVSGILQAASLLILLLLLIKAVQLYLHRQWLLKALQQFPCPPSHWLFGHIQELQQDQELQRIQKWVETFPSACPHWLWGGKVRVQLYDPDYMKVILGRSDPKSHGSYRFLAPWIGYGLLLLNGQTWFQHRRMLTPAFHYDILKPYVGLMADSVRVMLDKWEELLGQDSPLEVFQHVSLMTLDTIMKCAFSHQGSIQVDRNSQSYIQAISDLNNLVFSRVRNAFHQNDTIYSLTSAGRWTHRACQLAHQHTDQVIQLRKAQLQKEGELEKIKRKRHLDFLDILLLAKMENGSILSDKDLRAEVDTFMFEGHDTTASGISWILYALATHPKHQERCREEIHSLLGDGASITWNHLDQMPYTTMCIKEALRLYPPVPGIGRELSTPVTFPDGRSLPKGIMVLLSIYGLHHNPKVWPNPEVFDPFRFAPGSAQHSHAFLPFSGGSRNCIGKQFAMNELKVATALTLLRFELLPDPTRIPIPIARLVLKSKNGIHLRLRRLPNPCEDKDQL

Cytochrome P450 2C8 = Cytochrome P450 2C8 (Homo sapiens, UniProt P10632); test: Activity of human recombinant CYP2C8 assessed as enzyme-mediated drug metabolism treated with 25 uM vorapaxar after 120 mins by LC-MS/MS analysis in presence of NADPH; format: ADME; details: 2 h
CYP2B6 = CYP2B6 (Homo sapiens, UniProt P20813); test: Activity of human recombinant CYP2B6 assessed as enzyme-mediated drug metabolism at 10 uM after 120 mins by LC-MS/MS analysis in presence of NADPH; format: ADME; details: read-out: Compound recovery
Sequence of CYP2B6 (P20813 whole entry): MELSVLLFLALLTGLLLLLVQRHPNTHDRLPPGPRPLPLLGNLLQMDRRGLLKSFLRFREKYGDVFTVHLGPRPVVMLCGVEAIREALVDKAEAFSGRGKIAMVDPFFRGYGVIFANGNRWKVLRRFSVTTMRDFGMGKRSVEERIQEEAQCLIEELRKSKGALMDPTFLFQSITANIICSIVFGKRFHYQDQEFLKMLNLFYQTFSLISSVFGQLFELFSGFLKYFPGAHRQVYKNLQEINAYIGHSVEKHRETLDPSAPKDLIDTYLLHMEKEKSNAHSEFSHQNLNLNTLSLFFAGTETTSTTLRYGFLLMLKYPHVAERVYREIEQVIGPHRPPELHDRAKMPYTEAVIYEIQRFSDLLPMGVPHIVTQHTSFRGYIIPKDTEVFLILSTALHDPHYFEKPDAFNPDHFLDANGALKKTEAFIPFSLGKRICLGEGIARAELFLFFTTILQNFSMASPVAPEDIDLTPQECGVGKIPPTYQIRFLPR

CYP2C19 = CYP2C19 (Homo sapiens, UniProt P33261); test: Activity of human recombinant CYP2C19 assessed as enzyme-mediated drug metabolism at 10 uM after 120 mins by LC-MS/MS analysis in presence of NADPH; format: ADME; details: read-out: Compound recovery
Sequence of CYP2C19 (P33261 whole entry): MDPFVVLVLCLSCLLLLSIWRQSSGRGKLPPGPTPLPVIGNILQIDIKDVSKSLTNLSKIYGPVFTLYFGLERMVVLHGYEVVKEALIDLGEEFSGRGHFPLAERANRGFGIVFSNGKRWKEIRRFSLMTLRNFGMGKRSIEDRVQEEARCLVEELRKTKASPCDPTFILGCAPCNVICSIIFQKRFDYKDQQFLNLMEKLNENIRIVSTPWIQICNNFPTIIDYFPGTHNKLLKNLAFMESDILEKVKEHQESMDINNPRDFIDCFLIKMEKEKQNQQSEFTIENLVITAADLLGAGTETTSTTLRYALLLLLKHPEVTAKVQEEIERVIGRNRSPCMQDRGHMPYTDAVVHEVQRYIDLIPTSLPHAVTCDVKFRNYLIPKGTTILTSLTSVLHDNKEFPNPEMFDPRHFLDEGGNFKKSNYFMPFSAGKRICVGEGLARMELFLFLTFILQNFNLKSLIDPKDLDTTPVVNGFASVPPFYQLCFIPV

Cytochrome P450 2J2 = target: T1, Cytochrome P450 2J2 (Homo sapiens, UniProt P51589); test: Drug metabolism assessed as human recombinant CYP2J2-mediated 2-hydroxyethyl (1R,3aR,4aR,6R,8aR,9S,9aS)-9-((E)-2-(5-(3-fluorophenyl)pyridin-2-yl)vinyl)-1-methyl-3-oxododecahydronaphtho[2,3-c]furan-6-ylcarbamate formation at 25 uM after 120 mins by LC-MS/MS analysis in presence of ketoconazole; format: ADME; details: recombinant enzyme, 2 h
T1 sequence (P51589 whole entry): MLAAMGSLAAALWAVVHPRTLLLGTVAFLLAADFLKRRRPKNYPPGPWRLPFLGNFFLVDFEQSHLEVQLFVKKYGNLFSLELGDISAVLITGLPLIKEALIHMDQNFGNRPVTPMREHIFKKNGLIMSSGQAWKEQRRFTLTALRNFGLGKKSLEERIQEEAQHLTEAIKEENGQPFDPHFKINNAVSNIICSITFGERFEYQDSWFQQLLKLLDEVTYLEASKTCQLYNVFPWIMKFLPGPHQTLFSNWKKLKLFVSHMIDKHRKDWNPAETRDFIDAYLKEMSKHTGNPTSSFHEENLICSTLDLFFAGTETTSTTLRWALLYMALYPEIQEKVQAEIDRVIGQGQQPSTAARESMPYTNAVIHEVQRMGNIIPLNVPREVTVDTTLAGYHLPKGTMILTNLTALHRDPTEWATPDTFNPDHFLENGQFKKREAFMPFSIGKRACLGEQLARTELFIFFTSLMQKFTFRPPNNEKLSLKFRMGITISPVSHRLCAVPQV

[1] = Drug metabolism in human lung microsomes assessed as 2-hydroxyethyl (1R,3aR,4aR,6R,8aR,9S,9aS)-9-((E)-2-(5-(3-fluorophenyl)pyridin-2-yl)vinyl)-1-methyl-3-oxododecahydronaphtho[2,3-c]furan-6-ylcarbamate formation at 25 uM after 120 mins by LC-MS/MS analysis in presence of NADPH; format: ADME, microsome; details: 2 h
Liver microsome [2] = test: Drug metabolism in human liver microsomes overexpressing CYP3A4 assessed as (3R,3aS,4S,4aR,7R,8aR,9aR)-7-amino-4-((E)-2-(5-(3-fluorophenyl)pyridin-2-yl)vinyl)-3-methyldecahydronaphtho[2,3-c]furan-1(3H)-one formation at 25 uM after 120 mins by LC-MS/MS analysis in presence of tranylcypromine; format: ADME; details: 2 h
Cytochrome P450 2C19 = Cytochrome P450 2C19 (Homo sapiens, UniProt P33261); test: Activity of human recombinant CYP2C19 assessed as enzyme-mediated 2-hydroxyethyl (1R,3aR,4aR,6R,8aR,9S,9aS)-9-((E)-2-(5-(3-fluorophenyl)pyridin-2-yl)vinyl)-1-methyl-3-oxododecahydronaphtho[2,3-c]furan-6-ylcarbamate formation at 25 uM after 120 mins by LC-MS/MS analysis in presence of NADPH; format: ADME; details: 2 h
Sequence of Cytochrome P450 2C19 (P33261 whole entry): as the sequence (P33261 whole entry) above

Liver microsome [3] = test: Drug metabolism in human liver microsomes assessed as (3R,3aS,4S,4aR,7R,8aR,9aR)-7-amino-4-((E)-2-(5-(3-fluorophenyl)pyridin-2-yl)vinyl)-3-methyldecahydronaphtho[2,3-c]furan-1(3H)-one formation per nmol of enzyme at 25 uM after 120 mins by LC-MS/MS analysis; format: ADME; details: 2 h
Cytochrome P450 4F2 = Cytochrome P450 4F2 (Homo sapiens, UniProt P78329); test: Activity of human recombinant CYP4F2 assessed as enzyme-mediated 2-hydroxyethyl (1R,3aR,4aR,6R,8aR,9S,9aS)-9-((E)-2-(5-(3-fluorophenyl)pyridin-2-yl)vinyl)-1-methyl-3-oxododecahydronaphtho[2,3-c]furan-6-ylcarbamate formation at 25 uM after 120 mins by LC-MS/MS analysis in presence of NADPH; format: ADME; details: 2 h
Sequence of Cytochrome P450 4F2 (P78329 whole entry): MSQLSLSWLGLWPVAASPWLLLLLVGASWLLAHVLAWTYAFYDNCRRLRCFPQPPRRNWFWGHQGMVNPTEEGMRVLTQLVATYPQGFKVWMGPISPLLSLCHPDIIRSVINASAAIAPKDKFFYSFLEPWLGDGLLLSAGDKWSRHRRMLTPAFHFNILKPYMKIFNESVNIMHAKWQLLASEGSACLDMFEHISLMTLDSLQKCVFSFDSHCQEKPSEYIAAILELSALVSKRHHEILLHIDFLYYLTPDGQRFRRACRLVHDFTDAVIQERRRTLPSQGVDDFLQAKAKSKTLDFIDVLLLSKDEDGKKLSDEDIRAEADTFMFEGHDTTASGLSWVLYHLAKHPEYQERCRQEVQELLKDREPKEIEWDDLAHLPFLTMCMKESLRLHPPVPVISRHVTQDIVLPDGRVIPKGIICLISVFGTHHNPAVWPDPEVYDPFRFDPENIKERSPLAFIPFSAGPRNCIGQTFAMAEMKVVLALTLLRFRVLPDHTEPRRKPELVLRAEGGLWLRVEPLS

Cytochrome P450 1B1 = Cytochrome P450 1B1 (Homo sapiens, UniProt Q16678); test: Activity of human recombinant CYP1B1 assessed as enzyme-mediated 2-hydroxyethyl (1R,3aR,4aR,6R,8aR,9S,9aS)-9-((E)-2-(5-(3-fluorophenyl)pyridin-2-yl)vinyl)-1-methyl-3-oxododecahydronaphtho[2,3-c]furan-6-ylcarbamate formation at 25 uM after 120 mins by LC-MS/MS analysis in presence of NADPH; format: ADME; details: 2 h
Sequence of Cytochrome P450 1B1 (Q16678 whole entry): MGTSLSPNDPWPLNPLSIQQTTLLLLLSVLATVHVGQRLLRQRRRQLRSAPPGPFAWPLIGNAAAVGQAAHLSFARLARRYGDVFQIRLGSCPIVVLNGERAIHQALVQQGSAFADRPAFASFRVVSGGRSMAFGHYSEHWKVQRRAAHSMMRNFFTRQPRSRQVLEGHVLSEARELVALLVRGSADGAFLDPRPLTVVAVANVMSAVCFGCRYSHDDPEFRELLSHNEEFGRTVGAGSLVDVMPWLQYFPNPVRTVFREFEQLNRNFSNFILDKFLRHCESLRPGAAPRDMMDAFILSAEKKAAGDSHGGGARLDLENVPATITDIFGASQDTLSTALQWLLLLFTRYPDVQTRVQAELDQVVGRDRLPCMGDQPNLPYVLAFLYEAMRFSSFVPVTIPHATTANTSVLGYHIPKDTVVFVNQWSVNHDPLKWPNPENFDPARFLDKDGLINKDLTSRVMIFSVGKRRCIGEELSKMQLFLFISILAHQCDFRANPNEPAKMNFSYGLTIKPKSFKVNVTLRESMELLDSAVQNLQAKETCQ

Liver microsome [4] = test: Intrinsic clearance in human liver microsomes assessed as (3R,3aS,4S,4aR,7R,8aR,9aR)-7-amino-4-((E)-2-(5-(3-fluorophenyl)pyridin-2-yl)vinyl)-3-methyldecahydronaphtho[2,3-c]furan-1(3H)-one formation by measuring Vmax/Km per nmol of enzyme after 120 mins by LC-MS/MS analysis; format: ADME; details: 2 h
Cytochrome P450 2E1 = Cytochrome P450 2E1 (Homo sapiens, UniProt P05181); test: Activity of human recombinant CYP2E1 assessed as enzyme-mediated 2-hydroxyethyl (1R,3aR,4aR,6R,8aR,9S,9aS)-9-((E)-2-(5-(3-fluorophenyl)pyridin-2-yl)vinyl)-1-methyl-3-oxododecahydronaphtho[2,3-c]furan-6-ylcarbamate formation at 25 uM after 120 mins by LC-MS/MS analysis in presence of NADPH; format: ADME; details: 2 h
Sequence of Cytochrome P450 2E1 (P05181 whole entry): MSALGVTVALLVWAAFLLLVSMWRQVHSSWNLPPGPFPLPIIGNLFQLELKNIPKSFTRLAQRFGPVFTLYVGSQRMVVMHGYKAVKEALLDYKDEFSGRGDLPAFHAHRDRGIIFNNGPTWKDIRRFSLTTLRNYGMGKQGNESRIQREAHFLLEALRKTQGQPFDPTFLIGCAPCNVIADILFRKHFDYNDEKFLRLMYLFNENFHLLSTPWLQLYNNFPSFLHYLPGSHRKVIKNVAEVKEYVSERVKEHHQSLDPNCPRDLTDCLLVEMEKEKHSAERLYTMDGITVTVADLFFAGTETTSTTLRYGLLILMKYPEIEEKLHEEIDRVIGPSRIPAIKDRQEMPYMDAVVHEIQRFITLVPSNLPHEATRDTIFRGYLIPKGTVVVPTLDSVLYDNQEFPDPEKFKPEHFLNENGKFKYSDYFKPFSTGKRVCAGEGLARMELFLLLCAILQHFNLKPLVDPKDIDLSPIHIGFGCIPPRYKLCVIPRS

Cytochrome P450 2D6 = Cytochrome P450 2D6 (Homo sapiens, UniProt P10635); test: Activity of human recombinant CYP2D6 assessed as enzyme-mediated drug metabolism at 10 uM after 120 mins by LC-MS/MS analysis; format: ADME; details: 2 h
Sequence of Cytochrome P450 2D6 (P10635 whole entry): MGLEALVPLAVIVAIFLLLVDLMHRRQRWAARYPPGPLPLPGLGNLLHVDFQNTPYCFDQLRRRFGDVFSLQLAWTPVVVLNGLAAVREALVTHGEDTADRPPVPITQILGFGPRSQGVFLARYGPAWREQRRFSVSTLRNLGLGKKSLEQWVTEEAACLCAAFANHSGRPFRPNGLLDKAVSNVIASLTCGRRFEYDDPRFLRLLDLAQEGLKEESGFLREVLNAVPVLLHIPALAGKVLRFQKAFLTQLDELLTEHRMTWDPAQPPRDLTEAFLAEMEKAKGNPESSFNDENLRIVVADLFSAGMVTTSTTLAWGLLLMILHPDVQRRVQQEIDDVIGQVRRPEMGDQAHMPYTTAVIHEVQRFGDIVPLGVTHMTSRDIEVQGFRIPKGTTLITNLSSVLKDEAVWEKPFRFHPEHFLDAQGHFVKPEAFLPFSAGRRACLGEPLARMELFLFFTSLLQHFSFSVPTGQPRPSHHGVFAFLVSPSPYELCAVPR

Sequence of Cytochrome P450 3A4 (P08684 whole entry): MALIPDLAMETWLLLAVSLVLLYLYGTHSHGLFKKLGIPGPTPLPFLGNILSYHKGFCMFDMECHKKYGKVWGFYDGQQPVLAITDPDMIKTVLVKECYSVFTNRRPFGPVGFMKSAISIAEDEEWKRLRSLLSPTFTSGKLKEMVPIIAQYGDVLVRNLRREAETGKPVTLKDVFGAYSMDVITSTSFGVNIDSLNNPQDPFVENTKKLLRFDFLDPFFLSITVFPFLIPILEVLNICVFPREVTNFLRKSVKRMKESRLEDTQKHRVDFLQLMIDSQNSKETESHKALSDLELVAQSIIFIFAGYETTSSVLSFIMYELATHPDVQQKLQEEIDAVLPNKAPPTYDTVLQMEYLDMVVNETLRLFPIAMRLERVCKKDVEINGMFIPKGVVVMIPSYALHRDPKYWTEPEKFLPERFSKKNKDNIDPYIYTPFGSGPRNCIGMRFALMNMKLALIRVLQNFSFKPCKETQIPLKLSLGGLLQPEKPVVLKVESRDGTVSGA

Drug metabolism (Cytochrome P450 3A4): metabolite_detected
Drug metabolism (Cytochrome P450 4A11): metabolite_detected
Drug metabolism (Cytochrome P450 2C8): metabolite_detected
SMILES: C[C@H]1OC(=O)[C@@H]2C[C@@H]3C[C@H](NC(=O)OCCO)CC[C@H]3[C@H](/C=C/c3ccc(-c4cccc(F)c4)cn3)[C@H]12

remaining at 2 h, 10 µM (CYP2B6): 97.7%
remaining at 2 h, 10 µM (CYP2C19): 94.1%
Drug metabolism (Cytochrome P450 2J2): metabolite_not_detected
Drug metabolism [1]: metabolite_detected
Drug metabolism (Liver microsome [2]): metabolite_not_detected
SMILES: CCOC(=O)N[C@@H]1CC[C@@H]2[C@@H](C1)C[C@H]1C(=O)O[C@H](C)[C@H]1[C@H]2/C=C/c1ccc(-c2cccc(F)c2)cn1 [VORAPAXAR]

Drug metabolism (Cytochrome P450 2C19): metabolite_detected
Vmax (Liver microsome [3]): 30 pmol/min
Drug metabolism (Cytochrome P450 4F2): metabolite_detected
Drug metabolism (Cytochrome P450 1B1): metabolite_detected
CLH (Liver microsome [4]): 2.46 µL/min
Drug metabolism (Cytochrome P450 2E1): metabolite_detected
Drug metabolism (Cytochrome P450 2D6): metabolite_not_detected
SMILES: CCOC(=O)N[C@@H]1CC[C@@H]2[C@@H](C1)C[C@H]1C(=O)O[C@H](C)[C@H]1[C@H]2/C=[14CH]/c1ccc(-c2cccc(F)c2)cn1

Source: ChEMBL document CHEMBL3526033, “Identification of human liver cytochrome P450 enzymes involved in the metabolism of SCH 530348 (Vorapaxar), a potent oral thrombin protease-activated receptor 1 antagonist” (Drug Metab Dispos, 2011)
